Values of other authors as cited in patent publication US6191117A, “Methods of producing weight loss and treatment of obesity” (priority 2000, dated 2001).
“Also recorded” adds a separate entry of the source. Where two headings read alike, the source gives them in different places.

Legend:
seizure patients = conditions: for patients with weight decrease: adjunctive therapy, control 3%
[1] = system: strychnine-insensitive glycine-binding site
[2] = system: PVN (paraventricular nucleus)
[3] = system: PFH (perifornical hypothalamus)
NMDA receptors [4] = system: NMDA receptors
NMDA receptors [5] = conditions: in vivo
lateral hypothalamus [6] = conditions: injection into lateral hypothalamus
lateral hypothalamus [7] = conditions: rats previously given intrahypothalamic injections
[8] = system: NMDA receptor glycine site
carbonic anhydrase CA-II = conditions: compared with acetozolamide
carbonic anhydrase CA-IV = conditions: compared with acetozolamide
young healthy adults = conditions: acute doses and 2- and 4-week test periods
cerebral GABA = conditions: within three hours of oral administration
[9] = not given; remark: listed apart in the source
[10] = system: NMDA receptor glycine site; conditions: bilateral LH injection
[11] = injection into LH bilaterally for 8 days
[12] = another study, epileptic patients
[13] = clinical trials on seizure patients

CCCC(CCC)C(=O)O [valproate]
weight gain as monotherapy (seizure patients): associated with weight gain

N[C@H](CO)C(=O)O [D-serine]
7CK induced feeding ([1]; rat, in vivo): dose-dependently antagonized 7CK induced feeding

Nc1nnc(-c2cccc(Cl)c2Cl)c(N)n1 [LTG]
anorexia and nausea incidence (100 mg and 200 mg, adjunctive therapy and monotherapy): 6-15%
effect on body weight (12 months or up to 144 weeks): no significant effect on body weight
action on sodium channel (sodium channel): blocking the sodium channel

NCCCC(=O)O [γ-aminobutyric acid]
effect on eating in PVN [2]: feeding-stimulatory effects

NCCc1ccc(O)c(O)c1 [dopamine]
effect on eating in PFH [3]: feeding-suppressive effects

N[C@H](CCCP(=O)(O)O)C(=O)O [D-AP5]
suppression of deprivation-induced eating responses (NMDA receptors [4]; in vivo): ≤ 61%
suppression of nocturnal eating (NMDA receptors [4]; in vivo): ≤ 40%
body weight loss (NMDA receptors [4]; [11]): up to 13 grams/day
reduction in daily food intake (NMDA receptors [4]; [11]): 65%
eating responses elicited by AMPA (NMDA receptors [5]): without affecting
eating responses elicited by kainic acid (NMDA receptors [5]): without affecting
reduction of the 10-gram eating response elicited by NMDA (NMDA receptors [5]): 72-90%

NC[C@H](O)c1ccc(O)c(O)c1 [norepinephrine]
effect on eating in PVN [2]: feeding-stimulatory effects

C=C(C)[C@H]1CN[C@H](C(=O)O)[C@H]1CC(=O)O [KA, Kainic acid]
eating response on LH injection (lateral hypothalamus [6]): elicit a strong dose-dependent eating response; also recorded: elicited eating in a dose-dependent fashion; also recorded: trigger intense eating
eating response on LH injection (lateral hypothalamus [6]; listed as kainic acid): quantitatively similar eating responses
feeding and drinking (lateral hypothalamus [7]): impaired

Cc1onc(O)c1CC(N)C(=O)O (racemic) [AMPA, D,L-α-amino-3-hydroxy-5-methyl-isoxazole proprionic acid]
eating response on LH injection (lateral hypothalamus [6]): elicit a strong dose-dependent eating response; also recorded: elicited eating in a dose-dependent fashion; also recorded: trigger intense eating; also recorded: quantitatively similar eating responses

NCC(=O)O [glycine]
block by 7-CK of NMDA-elicited eating, after LH pretreatment with glycine ([8]; LH pretreatment): reversed this block

N[C@@H](CCC(=O)O)C(=O)O [glutamate]
effect on eating in PVN [2]: relatively ineffective
autonomic and endocrine effects (PVN injection) ([2]; PVN injections): can produce autonomic and endocrine effects
eating response on LH injection (lateral hypothalamus [6]): elicit a strong dose-dependent eating response; also recorded: elicited eating in satiated rats
effect on eating in PFH [3]: relatively ineffective
autonomic and endocrine effects (PFH injection) ([3]; PFH injections): can produce autonomic and endocrine effects

CC1(C)O[C@@H]2[C@@H](CO[C@@]3(COS(N)(=O)=O)OC(C)(C)O[C@@H]23)O1 [TPM, 2,3:4,5-DI-O-isolpropylidene-B-D-fructopyranose sulfamate]
inhibition of CA-II (carbonic anhydrase CA-II): weaker than that of acetozolamide
activity at the NMDA receptor (NMDA receptor): no effect on the activity of N-methyl-D-aspartate (NMDA)
bound to human plasma proteins (human plasma proteins; 1-250 μg/ml): 13-17%
plasma protein binding (human plasma proteins; concentration not given): approximately 15%
action on GABA (GABA receptor): potentiation of the effects of GABA
activity at the kainate/AMPA receptor (kainate/AMPA receptor): antagonizing the kainate/AMPA
dose dependence of common adverse events (patients with seizures; 200 to 400 mg/day): did not appear to be dose-related
discontinuation due to adverse events (patients with seizures; 200 to 400 mg/day adjunctive therapy): 11%
common adverse events, controlled trials (patients with seizures; 200 to 400 mg/day, adults): somnolence, dizziness, ataxia, speech disorders and related speech problems, psychomotor slowing, abnormal vision, difficulty with memory, paresthesia and diplopia
most common dose-related adverse events (patients with seizures; 200 to 1,000 mg/day): fatigue, nervousness, difficulty with concentration or attention, confusion, depression, anorexia, language problems, anxiety, mood problems, and weight decrease
course of adverse events (patients with seizures; 200 to 1,000 mg/day, rapid dose titration of 200 mg/day): abated after 4 months of treatment
renal calculi incidence relative to similar untreated population (patients with seizures; about, expected in a similar, untreated population): 2-4 times
nonspecific CNS effects occasionally observed (patients with seizures; add-on therapy): dizziness or imbalance, confusion, memory problems, and exacerbation of mood disturbances (i.e., irritability and depression)
renal calculi (kidney stones) incidence (patients with seizures; adults): 1.5%
severity of somnolence and fatigue (patients with seizures; clinical trials, early in therapy): generally mild to moderate
dose dependence of fatigue incidence (patients with seizures; dosages above 400 mg/day): increases at dosages above 400 mg/day
central nervous system adverse events (patients with seizures; human, in vivo): psychomotor slowing, difficulty with concentration, and speech or language problems, in particular, word-finding difficulty and somnolence and/or fatigue
correlation of plasma concentrations with adverse events (patients with seizures; human, in vivo): not correlated with the occurrence of adverse events
dose dependence of somnolence incidence (patients with seizures; human, in vivo): does not appear to be dose-related
adverse events associated with discontinuing therapy (patients with seizures; increased at dosages above 400 mg/day): somnolence, dizziness, anxiety, difficulty with concentration or attention, fatigue, and paresthesia
post-marketing adverse experiences (patients with seizures; post-marketing data): hepatic failure, hepatitis, pancreatitis, and renal tubular acidosis
inhibition of CA-IV (carbonic anhydrase CA-IV): weaker than that of acetozolamide
action on sodium channel (sodium channel): voltage-sensitive sodium channel blocking action
attention and word fluency (young healthy adults): statistically significant declines on measures of attention and word fluency
brain levels of cerebral GABA (cerebral GABA): acutely increase brain levels of cerebral GABA
carbonic anhydrase inhibition (carbonic anhydrase): weak carbonic anhydrase inhibitor
effect on urinary citrate excretion and urinary pH (carbonic anhydrase): reducing urinary citrate excretion and by increasing urinary pH
time to peak (TTP) plasma concentrations ([9]; 400 mg dose): about 2 hours
dose recovered in urine ([9]; 100-mg dose): 81-95%
linearity of pharmacokinetics ([9]; 200 to 800 mg/day): linear with dose proportional increases in plasma concentration
route of elimination ([9]; TPM and its metabolites): predominantly renal
increase of plasma concentrations ([9]; hepatic impairment): 29%
clearance in hepatically impaired subjects ([9]; hepatically impaired subjects): may be decreased
extent of metabolism ([9]; in vivo): not extensively metabolized
metabolites identified in humans ([9]; in vivo): Six metabolites
renal tubular reabsorption ([9]; in vivo): evidence of renal tubular reabsorption
routes of metabolite formation ([9]; in vivo): hydroxylation, hydrolysis, and glucuronidation
plasma levels in moderate or severe renal impairment ([9]; moderate or severe renal impairment): plasma levels are increased
reduction of clearance ([9]; moderate renal impairment (creatinine clearance 30-69 mL/min/1.73 m^2) vs normal): 42%
eliminated unchanged in the urine ([9]; of an administered dose): approximately 70%
absorption ([9]; oral): rapid; also recorded: nearly complete
elimination half-life ([9]; patients with normal renal function): 20 to 30 h
dose excreted as unchanged TPM ([9]; predominantly renal elimination): 50-80%
reduction of clearance ([9]; severe renal impairment (creatinine clearance <30 mL/min/1.73 m^2) vs normal): 54%
mean plasma concentration half-life ([9]; single or multiple doses): 21 h
relative bioavailability, effect of food ([9]; tablet): not affected by food
patients with weight decrease (seizure patients; 200-400 mg/day): 9%
patients with weight decrease (seizure patients; 600-1,000 mg/day): 13%
weight loss with valproate or valproate plus carbamazepine co-treatment (seizure patients; also treated with valproate, or valproate with carbamazepine): tended to be higher
amount of weight increase (seizure patients; another study, 2/12 patients): 12-25 pounds
amount of weight loss (seizure patients; another study, 5/12 patients): 12-42 pounds
patients with weight increase (seizure patients; [12]): 2/12
patients with weight loss (seizure patients; [12]): 5/12
average decline from baseline weight (seizure patients; [13]): 2-8%
average weight loss (seizure patients; [13]): 2 to 8 kg
report of anorexia in patients with weight loss (seizure patients; human, in vivo): more likely to report anorexia or loss of appetite
time to peak of weight loss (seizure patients; human, in vivo): 12-15 months
body weight after prolonged therapy (seizure patients; prolonged therapy): gradually returning toward pre-topiramate levels
patients with weight loss, long-term study (seizure patients; treated for up to 2.2 years): 26%

neuropeptide Y
effect on eating in PFH [3]: feeding-stimulatory effects

O=C(O)c1cc(O)c2ccc(Cl)cc2n1 [7-CK, 7-chlorokynurenic acid]
food intake ([1]; into intracerebral ventricles or paraventricular nucleus): dose-dependently increased food intake
AMPA-elicited eating ([8]; 7-CK 0.1 nmol): suppressed feeding elicited by KA or AMPA; also recorded: virtually blocking it
KA-elicited eating ([8]; 7-CK 0.1 nmol): suppressed feeding elicited by KA or AMPA; also recorded: suppressed KA-elicited eating
NMDA-elicited eating ([8]; 7-CK 0.1 nmol): enhanced NMDA-elicited eating
AMPA-elicited eating ([8]; 7-CK 10 nmol): suppressed eating elicited by AMPA
KA-elicited eating ([8]; 7-CK 10 nmol): enhancing eating elicited by KA; also recorded: markedly enhanced the KA-elicited response
NMDA-elicited eating ([8]; 7-CK 10 nmol): blocked NMDA-elicited eating
NMDA-elicited eating ([8]; LH injection before NMDA, satiated rats, dose not stated (high doses)): blocked
eating produced by fasting [10]: effectively suppressed eating produced by fasting

NC(=O)N1c2ccccc2C=Cc2ccccc21 [carbamazepine]
weight gain as monotherapy (seizure patients): associated with weight gain

CNC[C@H](O)c1ccc(O)c(O)c1 [epinephrine]
effect on eating in PFH [3]: feeding-suppressive effects
